From patent US20180021270A1, “METHODS FOR THE TREATMENT OF CANCER USING COENZYME Q10 IN COMBINATION WITH IMMUNE CHECKPOINT MODULATORS” (Berg LLC, priority 2016, published 2018)

Experiment: Body weight of C57BL/6 mice with Pan02 tumors
Type: in vivo, mouse
Settings: 25, 50 or 100 mg/kg i.p. twice per day for 21 days
Method: The body weight of C57BL/6 mice implanted with murine Pan02 pancreatic cancer cells and treated with Coenzyme Q10 was also evaluated. Tumors with mean volume of 100 mm^3 were treated twice per day with vehicle control or Coenzyme Q10 at 25, 50 or 100 mg/kg administered intraperitoneally for 21 days. Body weight was measured every two days for the first 5 days, and then twice per week.

COC1=C(OC)C(=O)C(C/C=C(\C)CC/C=C(\C)CC/C=C(\C)CC/C=C(\C)CC/C=C(\C)CC/C=C(\C)CC/C=C(\C)CC/C=C(\C)CC/C=C(\C)CCC=C(C)C)=C(C)C1=O [Coenzyme Q10]
Effect on body weight: no significant effect
